inhibition, IC50 and fold change (FC) data for 30 compounds are collected here from ChEMBL document CHEMBL2321862, “Development and evaluation of novel phosphotyrosine mimetic inhibitors targeting the Src homology 2 domain of signaling lymphocytic activation molecule (SLAM) associated protein” (J Med Chem, 2013).

Assay [1] has as its target T1, SH2 domain-containing protein 1A (Homo sapiens) (UniProt O60880).
T1 sequence (whole entry): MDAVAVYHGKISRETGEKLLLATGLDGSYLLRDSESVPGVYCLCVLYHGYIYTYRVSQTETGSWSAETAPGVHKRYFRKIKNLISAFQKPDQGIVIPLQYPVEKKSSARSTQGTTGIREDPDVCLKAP
Nature of the assay: Inhibition of recombinant 6-His-tagged SLAM associated protein SH2 domain (unknown origin) expressed in Escherichia coli BL21(DE3) binding to biotinyl-KKSLTIpYAQVQK-NH2 attached to NeutrAvidin-coated plates using p-nitrophenyl phosphate as substrate up to 1 uM after 1 hr.

The target of assay [2] is T2, SH2 domain-containing protein 1A (Homo sapiens, UniProt O60880).
T2 sequence (O60880 whole entry): T1 sequence (whole entry)
Nature of the assay: (§1) Inhibition of recombinant 6-His-tagged SLAM associated protein SH2 domain (unknown origin) expressed in Escherichia coli BL21(DE3) binding to biotinyl-KKSLTIpYAQVQK-NH2 attached to NeutrAvidin-coated plates using p-nitrophenyl phosphate as substrate after 1 hr.

Assay [3] has as its target T1, SH2 domain-containing protein 1A (Homo sapiens). Described as §1.
The target is the same in assay [4]. Kind of assay: Inhibition of recombinant 6-His-tagged SLAM associated protein SH2 domain (unknown origin) expressed in Escherichia coli BL21(DE3) binding to biotinyl-KKSLTIpYAQVQK-NH2 attached to NeutrAvidin-coated plates using p-nitrophenyl phosphate as substrate at 100 uM after 1 hr.
Assay [5] has the same target. Nature of the assay: Inhibition of recombinant 6-His-tagged SLAM associated protein SH2 domain (unknown origin) expressed in Escherichia coli BL21(DE3) binding to biotinyl-KKSLTIpYAQVQK-NH2 attached to NeutrAvidin-coated plates using p-nitrophenyl phosphate as substrate at 10 uM after 1 hr relative to control.
Assay [6] has the same target. Kind of assay: Inhibition of recombinant 6-His-tagged SLAM associated protein SH2 domain (unknown origin) expressed in Escherichia coli BL21(DE3) binding to biotinyl-KKSLTIpYAQVQK-NH2 attached to NeutrAvidin-coated plates using p-nitrophenyl phosphate as substrate after 1 hr in presence of calf intestine phosphatase.

Activity calls are given as the source filed them. Peptide text beside a SMILES is read from it.

Regarding `CC(=O)N[C@@H](CC(=O)O)C(=O)N[C@@H](CC(=O)O)C(=O)N1CCC[C@H]1C(=O)N[C@@H](CO)C(=O)N[C@@H](Cc1ccc(OP(=O)(O)O)cc1)C(=O)N[C@H](C(=O)N[C@@H](CC(N)=O)C(=O)N[C@H](C(=O)N[C@@H](CCC(N)=O)C(N)=O)C(C)C)C(C)C` (HELM PEPTIDE1{[ac].D.D.P.S.[O=C([C@H](Cc1ccc(OP(=O)(O)O)cc1)N[*:1])[*:2]].V.N.V.Q.[am]}$$$$V2.0), the inhibition entry in assay [1] is “inactive”.

With `NC(=O)[C@H](Cc1ccccc1)NC(=O)[C@H](Cc1ccc2c(c1)COP(=O)(O)O2)NC(=O)OCC1c2ccccc2-c2ccccc21`, in assay [2], the IC50 was 35 µM. For the same compound, the inhibition entry in assay [3] was “Dose-dependent effect”. Besides, the inhibition result in assay [4] was “Active”. Also, the fold change (FC) in assay [5] came out at 0.73.

Regarding `CC(C)(C)OC(=O)NCCCC[C@H](NC(=O)[C@H](Cc1ccc2c(c1)COP(=O)(O)O2)NC(=O)OCC1c2ccccc2-c2ccccc21)C(N)=O`, in assay [2], the 50% inhibitory concentration (IC50) turned out to be 34 µM. Moreover, in assay [3], the inhibition result is “Dose-dependent effect”. The inhibition result in assay [4] is “Active”. Moreover, the fold change (FC) in assay [5] stood at 0.7.

For `COC(=O)[C@H](Cc1ccc2c(c1)COP(=O)(O)O2)NC(=O)[C@H](CCC(=O)O)NC(=O)OCC1c2ccccc2-c2ccccc21`, in assay [4], the inhibition result is “Active”. Also, the fold change (FC) in assay [5] stood at 0.95.

Regarding `COC(=O)[C@H](Cc1ccc2c(c1)COP(=O)(O)O2)NC(=O)[C@H](Cc1c[nH]cn1)NC(=O)OCC1c2ccccc2-c2ccccc21`, in assay [4], the inhibition result is “Active”. In assay [5], the fold change (FC) was determined as 0.89.

In the case of `COC(=O)[C@H](Cc1ccc2c(c1)COP(=O)(O)O2)NC(=O)[C@H](CCCNC(=N)N)NC(=O)OCC1c2ccccc2-c2ccccc21`, the inhibition result in assay [4] was “Active”. In addition, in assay [5], the fold change (FC) was determined as 0.91.

In the case of `NC(=O)[C@H](Cc1ccc(O)cc1)NC(=O)[C@H](Cc1ccc2c(c1)COP(=O)(O)O2)NC(=O)OCC1c2ccccc2-c2ccccc21`, the inhibition result in assay [4] is “Active”. For the same compound, in assay [5], the fold change (FC) came to 0.95.

For the compound `CC(C)(C)Oc1ccc(C[C@H](NC(=O)[C@H](Cc2ccc3c(c2)COP(=O)(O)O3)NC(=O)OCC2c3ccccc3-c3ccccc32)C(N)=O)cc1`, the inhibition result in assay [4] was “Active”. The fold change (FC) in assay [5] was 1.24.

For `COC(=O)[C@H](Cc1ccc2c(c1)COP(=O)(O)O2)NC(=O)[C@H](CC(=O)NC(c1ccccc1)(c1ccccc1)c1ccccc1)NC(=O)OCC1c2ccccc2-c2ccccc21`, the inhibition entry in assay [4] is “Active”. Also, the fold change (FC) in assay [5] was 1.06.

For `COC(=O)[C@H](Cc1ccc2c(c1)COP(=O)(O)O2)NC(=O)[C@H](CC(C)C)NC(=O)OCC1c2ccccc2-c2ccccc21`, the inhibition result in assay [4] was “Active”. The fold change (FC) in assay [5] is 1.17.

Turning to `CSCC[C@H](NC(=O)[C@H](Cc1ccc2c(c1)COP(=O)(O)O2)NC(=O)OCC1c2ccccc2-c2ccccc21)C(N)=O`, the inhibition entry in assay [4] is “Active”. The fold change (FC) in assay [5] amounted to 0.91.

For the compound `NC(=O)[C@H](CC(=O)O)NC(=O)[C@@H](N)Cc1ccc2c(c1)COP(=O)(O)O2`, the inhibition entry in assay [3] is “inactive”.

With `COC(=O)[C@H](Cc1ccc2c(c1)COP(=O)(O)O2)NC(=O)[C@@H]1CCCN1C(=O)OCC1c2ccccc2-c2ccccc21`, in assay [4], the inhibition result is “Active”. Moreover, the fold change (FC) in assay [5] amounted to 0.81.

Regarding `NC(=O)[C@H](CCC(=O)NC(c1ccccc1)(c1ccccc1)c1ccccc1)NC(=O)[C@H](Cc1ccc2c(c1)COP(=O)(O)O2)NC(=O)OCC1c2ccccc2-c2ccccc21`, the inhibition result in assay [4] is “Active”. In addition, the fold change (FC) in assay [5] was 1.07.

Regarding `C[C@@H](OC(C)(C)C)[C@H](NC(=O)[C@H](Cc1ccc2c(c1)COP(=O)(O)O2)NC(=O)OCC1c2ccccc2-c2ccccc21)C(N)=O`, in assay [4], the inhibition entry is “Active”. Also, the fold change (FC) in assay [5] worked out at 1.13.

For the compound `COC(=O)[C@H](Cc1ccc2c(c1)COP(=O)(O)O2)NC(=O)[C@H](CC(N)=O)NC(=O)OCC1c2ccccc2-c2ccccc21`, the inhibition result in assay [4] is “Active”. In addition, the fold change (FC) in assay [5] was 0.8.

For `CC(C)(C)OC(=O)C[C@H](NC(=O)[C@H](Cc1ccc2c(c1)COP(=O)(O)O2)NC(=O)OCC1c2ccccc2-c2ccccc21)C(N)=O`, the inhibition result in assay [4] was “Active”. In addition, in assay [5], the fold change (FC) worked out at 1.24.

Take `COC(=O)[C@H](Cc1ccc2c(c1)COP(=O)(O)O2)NC(=O)[C@H](CCSC)NC(=O)OCC1c2ccccc2-c2ccccc21`: in assay [4], the inhibition entry was “Active”. In addition, the fold change (FC) in assay [5] was determined as 0.85.

As to `COC(=O)[C@H](Cc1ccc2c(c1)COP(=O)(O)O2)NC(=O)[C@H](Cc1c[nH]c2ccccc12)NC(=O)OCC1c2ccccc2-c2ccccc21`, the inhibition entry in assay [4] was “Active”. Also, the fold change (FC) in assay [5] was determined as 0.94.

Consider `CC(C)C[C@H](NC(=O)[C@H](Cc1ccc2c(c1)COP(=O)(O)O2)NC(=O)OCC1c2ccccc2-c2ccccc21)C(N)=O`, for which, in assay [4], the inhibition entry was “Active”. Further, the fold change (FC) in assay [5] came out at 0.99.

Consider `CC[C@H](C)[C@H](NC(=O)[C@@H](NC(=O)[C@H](CC(C)C)NC(=O)[C@H](CO)NC(=O)[C@H](CCCCN)NC(=O)[C@H](CCCCN)NC(C)=O)[C@@H](C)O)C(=O)N[C@@H](Cc1ccc(OP(=O)(O)O)cc1)C(=O)N[C@@H](C)C(=O)N[C@@H](CCC(N)=O)C(=O)N[C@H](C(=O)N[C@@H](CCC(N)=O)C(=O)N[C@@H](CCCCN)C(N)=O)C(C)C` (HELM PEPTIDE1{[ac].K.K.S.L.T.I.[O=C([C@H](Cc1ccc(OP(=O)(O)O)cc1)N[*:1])[*:2]].A.Q.V.Q.K.[am]}$$$$V2.0), for which the inhibition result in assay [3] was “Dose-dependent effect”. For the same compound, the inhibition result in assay [6] is “inactive”.

`NC(=O)[C@H](CC(=O)O)NC(=O)[C@H](Cc1ccc2c(c1)COP(=O)(O)O2)NC(=O)OCC1c2ccccc2-c2ccccc21`: in assay [2], the IC50 was 17 µM. Besides, in assay [3], the inhibition result was “Dose-dependent effect”. In assay [4], the inhibition entry was “Active”. Further, the fold change (FC) in assay [5] came to 0.55.

Regarding `COC(=O)[C@H](Cc1ccc2c(c1)COP(=O)(O)O2)NC(=O)[C@H](CCCCNC(=O)OC(C)(C)C)NC(=O)OCC1c2ccccc2-c2ccccc21`, the inhibition result in assay [4] was “Active”. The fold change (FC) in assay [5] is 0.85.

On to `COC(=O)[C@H](Cc1ccc2c(c1)COP(=O)(O)O2)NC(=O)[C@@H](NC(=O)OCC1c2ccccc2-c2ccccc21)C(C)C`, for which the inhibition result in assay [4] was “Active”. The fold change (FC) in assay [5] is 1.29.

As to `N=C(N)NCCC[C@H](NC(=O)[C@H](Cc1ccc2c(c1)COP(=O)(O)O2)NC(=O)OCC1c2ccccc2-c2ccccc21)C(N)=O`, in assay [4], the inhibition entry was “Active”. In addition, in assay [5], the fold change (FC) is 0.94.

Take `COC(=O)[C@H](Cc1ccc2c(c1)COP(=O)(O)O2)NC(=O)[C@@H](NC(=O)OCC1c2ccccc2-c2ccccc21)[C@@H](C)OC(C)(C)C`: the inhibition result in assay [4] was “Active”. Also, the fold change (FC) in assay [5] amounted to 0.85.

Regarding `NC(=O)[C@H](CC(=O)NC(c1ccccc1)(c1ccccc1)c1ccccc1)NC(=O)[C@H](Cc1ccc2c(c1)COP(=O)(O)O2)NC(=O)OCC1c2ccccc2-c2ccccc21`, the inhibition result in assay [4] was “Active”. For the same compound, the fold change (FC) in assay [5] was found to be 1.03.

In the case of `COC(=O)[C@H](Cc1ccc2c(c1)COP(=O)(O)O2)NC(=O)[C@H](CC(=O)OC(C)(C)C)NC(=O)OCC1c2ccccc2-c2ccccc21`, the inhibition entry in assay [4] was “Active”. The fold change (FC) in assay [5] was 0.9.

Turning to `NC(=O)[C@@H]1CCCN1C(=O)[C@H](Cc1ccc2c(c1)COP(=O)(O)O2)NC(=O)OCC1c2ccccc2-c2ccccc21`, in assay [4], the inhibition result is “Active”. The fold change (FC) in assay [5] was 1.05.

As for `COC(=O)[C@H](Cc1ccc2c(c1)COP(=O)(O)O2)NC(=O)CNC(=O)OCC1c2ccccc2-c2ccccc21`, the inhibition result in assay [4] was “Active”. Further, the fold change (FC) in assay [5] came out at 0.77.
